Experimental data reported in ChEMBL document CHEMBL5728000, “GCN2 inhibitors and uses thereof” (2020).

These compounds were tested against eIF-2-alpha kinase GCN2 (Homo sapiens, UniProt Q9P2K8) (assay: Enzyme Inhibition Assay: An assay buffer containing GCN2 kinase and (RS)7 was prepared. 4.7 μL of this stock solution was placed per well of a black, low volume, 384-well microtitre plate (e.g. catalogue number 3676, Corning Inc., NY). To this was added […] containing serial dilutions of the test compound (typical final concentrations of test compound were 0 to 8 μM). The plate was incubated for 10 minutes at 25° C. prior to the addition of 4.7 μL of ATP stock buffer to initiate the enzyme reaction. The reaction was allowed to proceed for 1 hour at 25° C., prior to the addition of 10 μL detection buffer (consisting of appropriate concentrations of ADP2 antibody and ADP Alexa633 tracer in 1× stop and detect buffer as supplied by BellBrook Labs). The reaction was left to incubate for 1 hour at 25° C., prior to measuring the fluorescence polarisation signal (mP) in each well using a PHERAstar FS reader (BMG Labtech, Germany).).
eIF-2-alpha kinase GCN2, sequence (Q9P2K8 whole entry): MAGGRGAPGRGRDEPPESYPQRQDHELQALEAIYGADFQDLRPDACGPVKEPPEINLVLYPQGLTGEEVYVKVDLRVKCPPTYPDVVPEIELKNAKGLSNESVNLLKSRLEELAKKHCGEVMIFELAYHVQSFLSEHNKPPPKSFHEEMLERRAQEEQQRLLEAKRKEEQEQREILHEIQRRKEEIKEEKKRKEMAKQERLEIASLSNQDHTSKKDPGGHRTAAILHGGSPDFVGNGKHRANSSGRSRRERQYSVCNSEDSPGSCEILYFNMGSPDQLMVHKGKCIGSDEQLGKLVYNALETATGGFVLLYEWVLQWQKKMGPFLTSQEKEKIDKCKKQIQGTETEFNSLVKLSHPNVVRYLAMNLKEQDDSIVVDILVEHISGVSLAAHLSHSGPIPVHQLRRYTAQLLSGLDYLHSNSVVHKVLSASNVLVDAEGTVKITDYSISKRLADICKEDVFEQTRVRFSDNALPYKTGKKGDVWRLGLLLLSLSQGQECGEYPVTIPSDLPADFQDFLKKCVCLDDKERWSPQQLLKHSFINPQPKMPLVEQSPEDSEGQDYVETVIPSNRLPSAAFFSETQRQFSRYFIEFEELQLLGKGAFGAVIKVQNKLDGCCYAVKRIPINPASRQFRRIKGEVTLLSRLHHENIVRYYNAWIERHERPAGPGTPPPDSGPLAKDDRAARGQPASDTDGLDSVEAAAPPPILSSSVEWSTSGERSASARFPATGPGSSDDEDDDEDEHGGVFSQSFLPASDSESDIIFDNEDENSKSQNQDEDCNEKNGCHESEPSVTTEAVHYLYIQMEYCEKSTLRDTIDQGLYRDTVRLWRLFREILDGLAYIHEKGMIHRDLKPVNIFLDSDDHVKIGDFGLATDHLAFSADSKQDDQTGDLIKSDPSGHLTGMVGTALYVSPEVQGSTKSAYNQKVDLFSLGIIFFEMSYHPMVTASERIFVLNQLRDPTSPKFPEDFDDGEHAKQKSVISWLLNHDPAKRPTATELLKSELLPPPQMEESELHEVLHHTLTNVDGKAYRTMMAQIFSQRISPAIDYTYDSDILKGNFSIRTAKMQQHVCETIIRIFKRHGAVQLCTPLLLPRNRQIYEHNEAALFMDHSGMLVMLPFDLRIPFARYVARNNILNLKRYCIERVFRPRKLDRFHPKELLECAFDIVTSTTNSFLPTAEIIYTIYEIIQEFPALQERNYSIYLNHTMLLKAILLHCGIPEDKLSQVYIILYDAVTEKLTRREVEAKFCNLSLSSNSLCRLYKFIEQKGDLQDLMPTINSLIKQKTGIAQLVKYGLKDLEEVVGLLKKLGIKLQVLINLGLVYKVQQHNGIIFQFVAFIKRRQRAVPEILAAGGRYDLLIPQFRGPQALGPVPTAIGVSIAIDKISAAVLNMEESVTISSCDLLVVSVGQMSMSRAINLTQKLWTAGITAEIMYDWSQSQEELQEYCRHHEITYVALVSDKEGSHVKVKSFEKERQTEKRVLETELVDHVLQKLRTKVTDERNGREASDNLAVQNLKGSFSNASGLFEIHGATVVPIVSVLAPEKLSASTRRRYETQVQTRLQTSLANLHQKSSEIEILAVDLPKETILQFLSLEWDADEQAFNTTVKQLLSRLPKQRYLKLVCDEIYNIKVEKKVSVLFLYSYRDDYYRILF

Ki, < 10 nM:
Cc1[nH]ncc1[C@@H]1CN(c2nccc(-c3cnc4ccc(C(F)(F)F)cn34)n2)C[C@H](C)O1
C[C@H]1C[C@@H](c2cn[nH]c2)CN(c2nccc(-c3cnc4ccc(C(F)(F)F)cn34)n2)C1 (mixture of isomers)
Cc1[nH]ncc1[C@H]1CN(c2nccc(-c3cnc4ccc(C(F)(F)F)cn34)n2)C[C@@H](C)O1 (relative stereo)
Cc1n[nH]cc1[C@H]1CN(c2ccnc(-c3cnc4ccc(C(F)(F)F)cn34)n2)C[C@@H](C)O1 (relative stereo)
C[C@@H]1CN(c2nccc(-c3cnc4ccc(C(F)(F)F)cn34)n2)C[C@H](c2cn[nH]c2)O1 (relative stereo)
